The values below come from US20150265644A1, “THERAPEUTIC METHODS AND COMPOSITIONS FOR TREATING DIABETES UTILIZING DITERPENOID COMPOUNDS” (Orient Europharma Co., Ltd., priority 2014, published 2015).

Bounds are passed on as bounds.

The subject of assay [1] is IL-6-treated C2C12 cells. The experiment in a line: Glycogen content assay in IL-6-induced insulin resistant C2C12 cells. The settings on record: 30 minutes. The class given is cell-based. Here is the method:
(§1) The C2C12 skeletal muscle cells were cultured in Dulbecco's modified Eagle's medium (DMEM; Gibco/Invitrogen, Carlsbad, Calif.), and the human hepatocellular carcinoma cell line, Hl-ep3B, was cultured in Roswell Park Memorial Institute medium 1640 (RPMI 1640 medium; Gibco/Invitrogen, Carlsbad, Calif.). Cells were cultured at 37° C. in the humidified incubator supplied with 5% CO2. Culture mediums were supplemented with 4.5 mgmL^−1 glucose, penicillin 100 IUmL^−1, streptomycin 100 μgmL^−1 and 10% fetal bovine serum (Gibco/Invitrogen, Carlsbad, Calif.). Only C2C12 cells were then switched to 2% horse serum for 3 days after reaching the 70% confluence. Myotubes formation was achieved after 4 days of incubation, and the cells were used for subsequent experiments. Culture mediums were replaced by serum free DMEM or RPMI for 24 h before experiments (see e.g., procedure described in Sultan et al., 2006).
(§2) C2C12 and Hep3B cells were treated with 1 nM insulin, 100 μM metformin, and the assigned concentration of borapetoside A for 30 minutes. To develop the insulin resistance state of cells, C2C12 cells were incubated with IL-6 at 20 ngmL^−1 for 1 hour. Later, the cells were treated with 1 nM insulin, 100 μM metformin, and the assigned concentration of borapetoside A for 30 minutes. After the assigned treatment, cells were washed twice with phosphate buffered saline (PBS). Glycogen content was measured as previously described, with some modifications (see e.g., Savage et al., 2008). The protein concentrations of the cell lysates were determined by using Pierce BCA Protein Assay Kit (Thermo-Scientific, Rockford, Ill.). The glycogen content of each sample was normalized by total protein.

Assay [2] concerns human hepatocellular carcinoma cell line Hep3B. In words: Glycogen content assay in Hep3B cells. The class given is cell-based. The settings on record: 30 minutes. How it is done:
as §1, §2

The nature of assay [3]: Plasma glucose after single intraperitoneal injection in mice. The class given is in vivo. The conditions noted are these: 60 min; for dose giving significant decrease of plasma glucose level: single i.p. dose; for plasma glucose level: 0.1-10 mgkg^−1 i.p., dose-dependent. How it is done: The 4-week-old male ICR mice were purchased from the Animal Center of the College of Medicine, National Taiwan University (Taipei, Taiwan) with delicate humane care. This animal study was conducted by following the University ethical guidelines and the ‘Guide for the Care and Use of Laboratory Animals’ published by the US National Institutes of Health (NIH publication no. 85-23, revised 1996). The animal experiments were approved by the Institutional Animal Care and Use Committee (IACUC) of the National Taiwan University (IACUC No. 20110073). Animals were housed in a room at the constant temperature, 22±1° C., with 12 hours light and dark cycles.
After three days of acclimatization, the mice had free access to a standard rodent chow (normal mice), a standard rodent chow after single 250 mgkg^−1 streptozotocin (STZ) intraperitoneal injection (TIDM mice), and a fat-rich chow diet and fructose-sweetened water (T2DM mice) for 4 weeks. The induction of Type 1 DM was assessed and confirmed when the mice had plasma glucose levels ≧350 mgdL^−1, accompanied with polyuria, hyperphagia and decreased body weight. The induction Type 2 DM in the mice was assessed by measuring fasting plasma glucose levels and confirmed when plasma glucose level was ≧150 mgdL^−1 after the 4-week induction. The animals were assigned randomly into three groups, with seven animals in each group. In group I, the mice were treated with vehicle, 2% DMSO in normal saline, as the negative control. In group II, the mice were intraperitoneally treated with borapetoside A (0.1-10 mgkg^−1). In […], the mice received intraperitoneally metformin (300 mgkg^−1; Sigma Chemical Co., St. Louis, Mo., U.S.A.) or insulin (0.5 IUkg^−1; Insulin Actrapid® HM; Novo Nordisk, Denmark). In the acute study, mice under anesthesia received a single intraperitoneal administration of borapetoside A, negative control, or positive control. In the subacute study, mice received intraperitoneal administrations of borapetoside A, vehicle, or insulin twice a day for seven days.
Blood samples were collected from the orbital vascular plexus of the mice under anesthesia. Blood samples were then centrifuged at 13000 rpm for 5 min, and the plasma samples were collected and kept on ice prior to the assay. The plasma glucose concentration was measured by Glucose Kit Reagent (Biosystems S.A., Barcelona, Spain) following the manufacturer's instructions, and the insulin levels were estimated using mouse insulin ELISA kit (Mercodia AB, Uppsala, Sweden).

The subject of assay [4] is soleus muscle. In words: Glycogen content in soleus muscle in vivo. Details: species or system mice. The conditions noted are these: 10 mgkg^−1 i.p., 60 minutes. How it is done: The mice were injected with borapetoside A (10 mgkg^−1, interperitoneal) for 60 minutes or insulin (0.5 IUkg^−1, interperitoneal) for 30 minutes. After the treatment, the anesthetic mice were sacrificed by cervical dislocation to collect the soleus muscle and liver. About 40 mg of each sample was dissolved in 1 mol/L KOH at 75° C. for 30 min. The dissolved homogenate was neutralized by glacial acetic acid and then incubated overnight in acetate buffer (0.3 mol/L sodium acetate, pH 4.8) containing amyloglucosidase (Sigma, St. Louis, Mo.). The mixture was then neutralized with 1 mol/L NaOH to stop the reaction. The glycogen contents in the tissue samples were determined as μg of glucose per mg of tissue (wet weight).

In assay [5] the test system is phospho-insulin receptor β (IRβ) (Tyr^1345). In words: Western blot of liver, phospho-insulin receptor. The assay is classed as in vivo. The conditions noted are these: mice with type 1 DM, 10 mgkg^−1 i.p. twice a day for 7 days. How it is done: (§3) After three days of acclimatization, the mice had free access to a standard rodent chow (normal mice), a standard rodent chow after single 250 mgkg^−1 streptozotocin (STZ) intraperitoneal injection (TIDM mice), and a fat-rich chow diet and fructose-sweetened water (T2DM mice) for 4 weeks. The induction of Type 1 DM was assessed and confirmed when the mice had plasma glucose levels ≧350 mgdL^−1, accompanied with polyuria, hyperphagia and decreased body weight. The induction Type 2 DM in the mice was assessed by measuring fasting plasma glucose levels and confirmed when plasma glucose level was ≧150 mgdL^−1 after the 4-week induction. […]
(§4) Western blot analysis was carried out by known methods with a slight modification. […] After centrifuging the homogenates at 10,000 g for 30 minutes, the protein concentrations were determined by using a BCA Protein Assay Kit (Pierce Biotechnology, Rockford, Ill.). […] The membranes were analysed by using the antibodies against phospho-insulin receptor β (IRβ) (Tyr^1345), phospho-Akt (Ser^473), phosphor-AS160 (Thr^642), AS160 (Cell Signaling Technology, Beverly, Mass.), IRβ, Akt, β-Actin (Santa Cruz Biotechnology, Santa Cruz, Calif.), GLUT2 (Abcam, Cambridge, UK), and PEPCK (a gift from Professor D K Granner), respectively. […] The intensity of each band was quantified with ImageQuant.

Assay [6] deals with phospho-Akt (Ser^473). In words: Western blot of liver, phospho-Akt. The class given is in vivo. The conditions noted are these: mice with type 1 DM, 10 mgkg^−1 i.p. twice a day for 7 days. Here is the method:
as §3, §4
On the technique in general: In western blotting, separated proteins are transferred to a membrane and probed.

`C[C@@]12C[C@@H](c3ccoc3)OC(=O)[C@@H]1C[C@@H]1OC(=O)[C@@]3(O)[C@@H](O[C@@H]4O[C@H](CO)[C@@H](O)[C@H](O)[C@H]4O)CC[C@@H]2[C@@]13C` [borapetoside A]: the “fold increase of glycogen content” value in assay [1] (IL-6-treated C2C12, 10^−6 mol/L) came out at 1.64±0.05 fold; in assay [1] (IL-6-treated C2C12, 10^−7 mol/L), 1.38±0.06 fold; in assay [1] (IL-6-treated C2C12, 10^−8 mol/L), 1.35±0.08 fold; in assay [2] (10^−5 mol/L) it was 1.54±0.11 fold; in assay [2] (10^−6 mol/L), 1.39±0.12 fold; in assay [2] (10^−7 mol/L), 1.46±0.05 fold. The results for the “dose giving significant decrease of plasma glucose level” value in assay [3] (mice with type 2 DM) and in assay [3] (normal mice) were “higher than 0.3 mgkg^−1” and not below 1 mgkg^−1, respectively. The plasma glucose level result in assay [3] (normal mice), in assay [3] (type 1 DM mice) and in assay [3] (type 2 DM mice) was “lowered” in each case. Moreover, the “glycogen content in soleus muscle, % of vehicle control” value in assay [4] (mice with type 1 DM) stood at 155.6±8.6%; in assay [4] (mice with type 2 DM) it was 171.8±12.0%; in assay [4] (normal mice), 116.5±4.2%. In addition, the “phosphorylated IR in liver” value in assay [5] is listed as “increased”. In assay [6], the “phosphorylated Akt in liver” value was “increased”.
